Measured values from patent US6423717B1, “Sulphonamide derivatives, process for their preparation, and their use as medicaments” (SmithKline Beecham p.l.c., priority 1996, dated 2002).

Biological target: T1, human cloned 5-HT6 receptors (Homo sapiens, UniProt P50406)
T1 construct: host or cells: HeLa cells expressing 5-HT6 (HeLa-5HT6), washed membranes
Experiment: 5-HT6 receptor binding assay, [3H]-LSD displacement on washed membranes of HeLa-5HT6 cells
Conditions: radio-ligand [3H]-LSD 2.0 nM, HeLa-5HT6 cell membranes, 37° C., Ki by Cheng and Prusoff
Protocol: Method for assay of 5-HT6 antagonistic activity:
The test compounds were dissolved in polyethylene glycol:dimethyl sulphoxide (1:1) at 1 or 10 mM and diluted to 0.1 mM using 5 mM tris buffer (pH 7.7 @25° C.). Dissolution was assisted by addition of 0.02 ml 5M HCl plus heating to 40° C. and sonication for 10 minutes. […] The incubation buffer was 50 mM Trizma (Sigma, UK) pH7.7 @25° C., 4 mM MgCl2.
After incubation at 37° C., the mixtures were filtered using a Packard Filtermate in Packard TopCount format. Filters were washed with 4×1 ml aliquots of ice-cold incubation buffer. Filters were dried and impregnated with 0.04 ml of Microscint 20 (Packard). IC50 values were estimated from the counts per minute using a four parameter logistic curve fit within EXCEL (2). Ki values were calculated using the method of Cheng and Prusoff(3). pIC50 and pKi are the negative log10 of the molar IC50 and Ki respectively.

T1 sequence (P50406 whole entry): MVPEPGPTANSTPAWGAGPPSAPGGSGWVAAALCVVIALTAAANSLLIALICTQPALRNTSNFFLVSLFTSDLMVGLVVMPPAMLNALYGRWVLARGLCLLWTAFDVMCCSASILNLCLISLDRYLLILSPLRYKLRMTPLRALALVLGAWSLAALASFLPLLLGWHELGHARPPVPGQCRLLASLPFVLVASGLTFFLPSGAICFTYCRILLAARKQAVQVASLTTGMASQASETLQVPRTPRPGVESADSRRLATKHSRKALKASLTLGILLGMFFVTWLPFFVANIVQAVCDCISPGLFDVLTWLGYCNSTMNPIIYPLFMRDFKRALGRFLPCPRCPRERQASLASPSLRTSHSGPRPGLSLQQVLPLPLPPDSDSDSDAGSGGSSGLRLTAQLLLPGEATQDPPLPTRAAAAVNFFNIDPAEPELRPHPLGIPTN

Compound	Ki [nM]
COc1ccc(NS(=O)(=O)c2cccc(Br)c2)cc1N1CCN(C)CC1 [Example 11, 3-Bromo-N-[4-methoxy-3-(4-methylpiperazin-1-yl)phenyl]benzenesulfonamide]	< 10
COc1ccc(NS(=O)(=O)c2c(C)sc3ccc(Cl)cc23)cc1N1CCN(C)CC1 [Example 65, 5-Chloro-2-methylbenzo[b]thiophene-3-sulfonic acid [4-methoxy-3-(4-methylpiperazin-1-yl)phenyl] amide]	< 10
COc1ccc(NS(=O)(=O)c2cc(Cl)cc(Cl)c2)cc1N1CCNCC1 [Example 72, 3,5-Dichloro-N-(4-methoxy-3-piperazin-1-ylphenyl)benzenesulfonamide]	< 10
COc1ccc(NS(=O)(=O)c2ccc(Cl)c(Cl)c2)cc1N1CCNCC1 [Example 90, 3,4-Dichloro-N-(4-methoxy-3-piperazin-1-ylphenyl)benzenesulfonamide]	< 10
COc1ccc(NS(=O)(=O)c2cccc(Cl)c2)cc1N1CCNCC1 [Example 78, 3-Chloro-N-(4-methoxy-3-piperazin-1-ylphenyl)benzenesulfonamide]	< 10
COc1ccc(NS(=O)(=O)c2ccc3ccccc3c2)cc1N1CCNCC1 [Example 87, Naphthalene-2-sulfonic acid(4-methoxy-3-piperazin-1-ylphenyl)amide]	< 10
COc1ccc(NS(=O)(=O)c2c(C)sc3ccc(Cl)cc23)cc1N1CCNCC1 [Example 84, 5-Chloro-2-methylbenzo[b]thiophene-3-sulfonic acid (4-methoxy-3-piperazin-1-ylphenyl) amide]	< 10
COc1ccc(NS(=O)(=O)c2ccc3c(Cl)cccc3c2)cc1N1CCN(C)CC1 [Example 61, 5-Chloronaphthalene-2-sulfonic acid [4-methoxy-3-(4-methylpiperazin-1-yl)phenyl] amide]	< 10
COc1ccc(NS(=O)(=O)c2cccc(I)c2)cc1N1CCNCC1 [Example 70, 3-Iodo-N-(4-methoxy-3-piperazin-1-ylphenyl)benzenesulfonamide]	< 10
COc1ccc(NS(=O)(=O)c2cccc(Br)c2)cc1N1CCNCC1 [Example 77, 3-Bromo-N-(4-methoxy-3-piperazin-1-ylphenyl)benzenesulfonamide]	< 10
COc1ccc(NS(=O)(=O)c2cc(Cl)cc(Cl)c2)cc1N1CCN(C)CC1 [Example 15, 3,5-Dichloro-N-[4-methoxy-3-(4-methylpiperazin-1-yl)phenyl]benzenesulfonamide]	< 10
COc1ccc(NS(=O)(=O)c2ccc3c(Cl)cccc3c2)cc1N1CCNCC1 [Example 79, 5-Chloronaphthalene-2-sulfonic acid(4-methoxy-3-piperazin-1-ylphenyl)amide]	< 10
